From article PMC6063448, “Antimicrobial activity of linear lipopeptides derived from BP100 towards plant pathogens” (PLoS ONE, 2018)

Assays:
Assay type in all cases: cell-based
[1] = system: Erwinia amylovora PMV6076; experiment: MIC, growth inhibition in microtiter plates (TSB); details: Ea, 25°C, 48 h, OD 600 nm, lowest concentration with no growth, given as interval of tested concentrations, three replicates, experiment repeated twice
Text: (§1) The following plant pathogenic bacterial strains were used: Erwinia amylovora PMV6076 (Institut National de la Recherche Agronomique, Angers, France), Pseudomonas syringae pv. syringae EPS94 (Institut de Tecnologia Agroalimentària, Universitat de Girona, Spain), Xanthomonas axonopodis pv. vesicatoria 2133–2, Pseudomonas syringae pv. actinidiae Psa3700.1.1, Xanthomonas fragariae Xf349-9A (Instituto Valenciano de Investigaciones Agrarias, Valencia, Spain), and Xanthomonas arboricola pv. pruni CFBP5563 (Collection Française de Bactéries associées aux Plantes, Angers, France). All bacteria except for X. fragariae were stored in Luria Bertani (LB) broth supplemented with glycerol (20%) and maintained at -80°C. For X. fragariae, Medium B [46] was used instead of LB. E. amylovora, X. arboricola pv. pruni, P. syringae pv. syringae and P. syringae pv. actinidiae were scrapped from the agar media after growing for 24 h at 25°C, and X. axonopodis pv. vesicatoria and X. fragariae after growing for 48 h at 25°C. The cell material was suspended in sterile water to obtain a suspension of 10^8 CFU mL^-1.
(§2) Lyophilized peptides were solubilized in sterile Milli-Q water to a final concentration of 1 mM and filter sterilized through a 0.22-μm pore filter. […] For antibacterial activity 20 μL of each dilution were mixed in a microtiter plate well with 20 μL of the corresponding suspension of the bacterial indicator, 160 μL of Trypticase Soy Broth (TSB) (BioMèrieux, France) to a total volume of 200 μL. For antifungal activity 20 μL of each stock solution were mixed in a microtiter plate well with 80 μL of the corresponding suspension of the fungal pathogen and 100 μL of double concentrated Potato Dextrose Broth (PDB) to a total volume of 200 μL containing 0.003% w/v of chloramphenicol to prevent bacterial contamination.
(§3) Three replicates for each combination of strain, compound and concentration were used. Microbial growth was determined by optical density measurement at 600 nm (Bioscreen C, Labsystem, Helsinki, Finland). For antibacterial activity microplates were incubated at 25°C with 20 s shaking before hourly absorbance measurement for 48 h. For antifungal activity microplates were incubated at 22°C with 1 min shaking before absorbance measurement that were done every two hours during seven days. The experiment was repeated twice. The MIC was taken as the lowest compound concentration with no growth at the end of the experiment.

[2] = system: Pseudomonas syringae pv. actinidiae Psa3700.1.1; experiment: MIC, growth inhibition in microtiter plates (TSB); details: Psa, 25°C, 48 h, OD 600 nm, lowest concentration with no growth, given as interval of tested concentrations, three replicates, experiment repeated twice
Text: as §1, §2, §3

[3] = system: Pseudomonas syringae pv. syringae EPS94; experiment: MIC, growth inhibition in microtiter plates (TSB); details: Pss, 25°C, 48 h, OD 600 nm, lowest concentration with no growth, given as interval of tested concentrations, three replicates, experiment repeated twice
Text: as §1, §2, §3

[4] = system: Xanthomonas arboricola pv. pruni CFBP5563; experiment: MIC, growth inhibition in microtiter plates (TSB); details: Xap, 25°C, 48 h, OD 600 nm, lowest concentration with no growth, given as interval of tested concentrations, three replicates, experiment repeated twice
Text: as §1, §2, §3

[5] = system: Xanthomonas axonopodis pv. vesicatoria 2133–2; experiment: MIC, growth inhibition in microtiter plates (TSB); details: Xav, 25°C, 48 h, OD 600 nm, lowest concentration with no growth, given as interval of tested concentrations, three replicates, experiment repeated twice
Text: as §1, §2, §3

[6] = system: Xanthomonas fragariae Xf349-9A; experiment: MIC, growth inhibition in microtiter plates (TSB); details: Xf, 25°C, 48 h, OD 600 nm, lowest concentration with no growth, given as interval of tested concentrations, three replicates, experiment repeated twice
Text: as §1, §2, §3

[7] = system: Fusarium oxysporum f. sp. lycopersici FOL 3 race 2; experiment: MIC, antifungal growth inhibition in microtiter plates (PDB); details: Fo, 22°C, seven days, OD 600 nm, lowest concentration with no growth, given as interval of tested concentrations, three replicates, experiment repeated twice
Protocol: (§4) The following plant pathogenic fungal strains were used: Penicillium expansum EPS26 (Institut de Tecnologia Agroalimentària, Universitat de Girona, Spain) and Fusarium oxysporum f. sp. lycopersici FOL 3 race 2 (ATCC 201829, American Type Culture Collection,Virginia, EEUU). Strains were cultured on potato dextrose agar (PDA) plates (Difco). Conidia from P. expansum and microconidia from F. oxysporum were obtained from 5–7 day-old agar Potato Dextrose (PDA) cultures after growth at 25°C. Inoculum was prepared by scraping spore material from culture surfaces with a cotton swab and resuspending it in distilled water containing 0.5‰ of tween 80. The suspensions were filtered through Miracloth (Merk, Millipore) and the concentration of conidia was determined using a hemacytometer and adjusted to 10^4 conidia mL^-1 for F. oxysporum and to 10^3 conidia mL^-1 for P. expansum.
as §2, §3

[8] = system: Penicillium expansum EPS26; experiment: as above; details: Pe, 22°C, seven days, OD 600 nm, lowest concentration with no growth, given as interval of tested concentrations, three replicates, experiment repeated twice
Protocol: as §4, §2, §3

Structure (SMILES) | MIC [1] | MIC [2] | MIC [3] | MIC [4] | MIC [5] | MIC [6] | MIC [7] | MIC [8]
CCCCCCCCCCCC(=O)NCCCC[C@H](NC(=O)[C@H](Cc1ccccc1)NC(=O)[C@H](CC(C)C)NC(=O)[C@H](CCCCN)NC(=O)[C@H](CCCCN)NC(C)=O)C(=O)N[C@@H](CCCCN)C(=O)N[C@H](C(=O)N[C@@H](CC(C)C)C(=O)N[C@@H](CCCCN)C(=O)N[C@@H](Cc1ccc(O)cc1)C(=O)N[C@@H](CC(C)C)C(N)=O)[C@@H](C)CC [BP396, Ac-KKLFK(COC11H23)KILKYL-NH2] | >25 µM | >25 µM | >25 µM | 1.6 to 3.1 µM | 3.1 to 6.2 µM | 1.6 to 3.1 µM | 6.2 to 12.5 µM | 12.5 to 25 µM
CCCCCCCCCCCC(=O)NCCCC[C@H](NC(C)=O)C(=O)N[C@@H](CCCCN)C(=O)N[C@@H](CC(C)C)C(=O)N[C@@H](Cc1ccccc1)C(=O)N[C@@H](CCCCN)C(=O)N[C@@H](CCCCN)C(=O)N[C@H](C(=O)N[C@@H](CC(C)C)C(=O)N[C@@H](CCCCN)C(=O)N[C@@H](Cc1ccc(O)cc1)C(=O)N[C@@H](CC(C)C)C(N)=O)[C@@H](C)CC [BP392, Ac-K(COC11H23)KLFKKILKYL-NH2] | >25 µM | >25 µM | >25 µM | 3.1 to 6.2 µM | 3.1 to 6.2 µM | 0.8 to 1.6 µM | 6.2 to 12.5 µM | >25 µM
CCCC(=O)NCCCC[C@H](NC(C)=O)C(=O)N[C@@H](CCCCN)C(=O)N[C@@H](CC(C)C)C(=O)N[C@@H](Cc1ccccc1)C(=O)N[C@@H](CCCCN)C(=O)N[C@@H](CCCCN)C(=O)N[C@H](C(=O)N[C@@H](CC(C)C)C(=O)N[C@@H](CCCCN)C(=O)N[C@@H](Cc1ccc(O)cc1)C(=O)N[C@@H](CC(C)C)C(N)=O)[C@@H](C)CC [BP380, Ac-K(COC3H7)KLFKKILKYL-NH2] | 3.1 to 6.2 µM | 6.2 to 12.5 µM | 6.2 to 12.5 µM | 3.1 to 6.2 µM | 3.1 to 6.2 µM | 3.1 to 6.2 µM | 0.8 to 1.6 µM | 3.1 to 6.2 µM
CCCCCCCCCCCC(=O)NCCCC[C@H](NC(=O)[C@H](CCCCN)NC(=O)[C@H](Cc1ccccc1)NC(=O)[C@H](CC(C)C)NC(=O)[C@H](CCCCN)NC(=O)[C@H](CCCCN)NC(C)=O)C(=O)N[C@H](C(=O)N[C@@H](CC(C)C)C(=O)N[C@@H](CCCCN)C(=O)N[C@@H](Cc1ccc(O)cc1)C(=O)N[C@@H](CC(C)C)C(N)=O)[C@@H](C)CC [BP397, Ac-KKLFKK(COC11H23)ILKYL-NH2] | >25 µM | >25 µM | >25 µM | 3.1 to 6.2 µM | 6.2 to 12.5 µM | 1.6 to 3.1 µM | 6.2 to 12.5 µM | 12.5 to 25 µM
CCCCCC(=O)NCCCC[C@H](NC(C)=O)C(=O)N[C@@H](CCCCN)C(=O)N[C@@H](CC(C)C)C(=O)N[C@@H](Cc1ccccc1)C(=O)N[C@@H](CCCCN)C(=O)N[C@@H](CCCCN)C(=O)N[C@H](C(=O)N[C@@H](CC(C)C)C(=O)N[C@@H](CCCCN)C(=O)N[C@@H](Cc1ccc(O)cc1)C(=O)N[C@@H](CC(C)C)C(N)=O)[C@@H](C)CC [BP368, Ac-K(COC5H11)KLFKKILKYL-NH2] | 6.2 to 12.5 µM | 6.2 to 12.5 µM | 6.2 to 12.5 µM | 3.1 to 6.2 µM | 3.1 to 6.2 µM | 6.2 to 12.5 µM | 0.8 to 1.6 µM | 1.6 to 3.1 µM
CCCCCCCCCCCC(=O)NCCCC[C@H](NC(=O)[C@H](CC(C)C)NC(=O)[C@H](CCCCN)NC(=O)[C@H](CCCCN)NC(C)=O)C(=O)N[C@@H](CCCCN)C(=O)N[C@@H](CCCCN)C(=O)N[C@H](C(=O)N[C@@H](CC(C)C)C(=O)N[C@@H](CCCCN)C(=O)N[C@@H](Cc1ccc(O)cc1)C(=O)N[C@@H](CC(C)C)C(N)=O)[C@@H](C)CC [BP395, Ac-KKLK(COC11H23)KKILKYL-NH2] | 12.5 to 25 µM | 3.1 to 6.2 µM | 3.1 to 6.2 µM | 1.6 to 3.1 µM | 1.6 to 3.1 µM | 1.6 to 3.1 µM | 6.2 to 12.5 µM | 12.5 to 25 µM
CCCC(=O)NCCCC[C@H](NC(=O)[C@H](Cc1ccccc1)NC(=O)[C@H](CC(C)C)NC(=O)[C@H](CCCCN)NC(=O)[C@H](CCCCN)NC(C)=O)C(=O)N[C@@H](CCCCN)C(=O)N[C@H](C(=O)N[C@@H](CC(C)C)C(=O)N[C@@H](CCCCN)C(=O)N[C@@H](Cc1ccc(O)cc1)C(=O)N[C@@H](CC(C)C)C(N)=O)[C@@H](C)CC [BP384, Ac-KKLFK(COC3H7)KILKYL-NH2] | 3.1 to 6.2 µM | 6.2 to 12.5 µM | 6.2 to 12.5 µM | 3.1 to 6.2 µM | 1.6 to 3.1 µM | 1.6 to 3.1 µM | 1.6 to 3.1 µM | 12.5 to 25 µM
CCCCCCCCCCCC(=O)NCCCC[C@H](NC(=O)[C@H](CCCCN)NC(C)=O)C(=O)N[C@@H](CC(C)C)C(=O)N[C@@H](Cc1ccccc1)C(=O)N[C@@H](CCCCN)C(=O)N[C@@H](CCCCN)C(=O)N[C@H](C(=O)N[C@@H](CC(C)C)C(=O)N[C@@H](CCCCN)C(=O)N[C@@H](Cc1ccc(O)cc1)C(=O)N[C@@H](CC(C)C)C(N)=O)[C@@H](C)CC [BP393, Ac-KK(COC11H23)LFKKILKYL-NH2] | 12.5 to 25 µM | 6.2 to 12.5 µM | 12.5 to 25 µM | 3.1 to 6.2 µM | 3.1 to 6.2 µM | 3.1 to 6.2 µM | 1.6 to 3.1 µM | >25 µM
CCCCCCCCCCCC(=O)N[C@@H](CCCCN)C(=O)N[C@@H](CCCCN)C(=O)N[C@@H](CC(C)C)C(=O)N[C@@H](Cc1ccccc1)C(=O)N[C@@H](CCCCN)C(=O)N[C@@H](CCCCN)C(=O)N[C@H](C(=O)N[C@@H](CC(C)C)C(=O)N[C@@H](CCCCN)C(=O)N[C@@H](Cc1ccc(O)cc1)C(=O)N[C@@H](CC(C)C)C(N)=O)[C@@H](C)CC [BP391, C11H23CO-KKLFKKILKYL-NH2] | >25 µM | >25 µM | >25 µM | 6.2 to 12.5 µM | 6.2 to 12.5 µM | 3.1 to 6.2 µM | 12.5 to 25 µM | >25 µM
CCCCCCCCCCCC(=O)NCCCC[C@H](NC(=O)[C@@H](NC(=O)[C@H](CCCCN)NC(=O)[C@H](CCCCN)NC(=O)[C@H](Cc1ccccc1)NC(=O)[C@H](CC(C)C)NC(=O)[C@H](CCCCN)NC(=O)[C@H](CCCCN)NC(C)=O)[C@@H](C)CC)C(=O)N[C@@H](CCCCN)C(=O)N[C@@H](Cc1ccc(O)cc1)C(=O)N[C@@H](CC(C)C)C(N)=O [BP399, Ac-KKLFKKIK(COC11H23)KYL-NH2] | >25 µM | 3.1 to 6.2 µM | 3.1 to 6.2 µM | 1.6 to 3.1 µM | 0.8 to 1.6 µM | 3.1 to 6.2 µM | 6.2 to 12.5 µM | 12.5 to 25 µM
